In US20220267347A1, “SUBSTITUTED PYRIMIDINEDIONE COMPOUNDS AND USES THEREOF” (SUNSHINE LAKE PHARMA CO., LTD., priority 2019, published 2022):

Key:
humanized GnRH receptor = target: T1, humanized GnRH receptor (Homo sapiens, UniProt P30968); assay: Antagonism on humanized GnRH receptor transfected in RBL-1 cells, fluorescence detection of cytoplasmic calcium flow; type: cell-based; conditions: RBL-1 cells transfected with humanized GnRH receptor, 8 nM LH-RH
T1 construct: expressed in transfected cells; host or cells: RBL-1 cells (Rat Basophilic Leukemia)
T1 sequence (P30968 1-328): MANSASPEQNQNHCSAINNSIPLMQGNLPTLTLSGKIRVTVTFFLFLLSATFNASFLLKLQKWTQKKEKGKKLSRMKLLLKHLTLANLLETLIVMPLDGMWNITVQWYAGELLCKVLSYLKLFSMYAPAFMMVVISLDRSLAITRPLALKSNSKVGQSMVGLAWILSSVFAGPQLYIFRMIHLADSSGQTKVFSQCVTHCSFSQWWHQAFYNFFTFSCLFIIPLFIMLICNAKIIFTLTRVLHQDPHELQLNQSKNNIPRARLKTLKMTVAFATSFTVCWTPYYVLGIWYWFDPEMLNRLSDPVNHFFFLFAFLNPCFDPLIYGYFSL
Procedure: The antagonism of the compound on humanized GnRH receptor transfected in RBL-1 cells (Rat Basophilic Leukemia) was evaluated by a fluorescence method for detecting the cytoplasmic calcium flow.
The cells were suspended in HBSS buffer (Invitrogen, USA), 20 mM HEPES buffer (Invitrogen, USA) was added, and then the cells were added at an average density of 1.186×10^4 cells/well into a microwell reaction plate. Fluorescent probe (Fluo8 Direct, AAT Bioquest) was mixed with HBSS buffer (adding 20 mM HEPES buffer, pH=7.4), and the mixture was added into each well and the cells were incubated at 30° C. for 60 min. Then the reaction plate was placed in a microplate reader (FlipR Tetra, Molecular Device) for testing, the test compound or HBSS buffer (blank control) was added, after 5 min, 8 nM LH-RH was added, and the changes of the fluorescence intensity which is proportional to intracellular calcium ion concentration were measured. The fluorescence intensity of the blank control group without adding the compound was taken as 100% (inhibition rate was 0%), and the inhibition rate of the compound was calculated. The IC50 value was calculated by measuring the inhibition rate of the compound at different concentrations.

[1] = Pharmacokinetic evaluation after intravenous or gavage administration to rats; type: in vivo, SD rats; conditions: for AUC(0-inf) / AUC(0-t) / Cmax / MRT inf / Tmax / clearance / half-life: Sprague-Dawley (SD), rat, plasma
Procedure: (§1) The pharmacokinetics of the compound of the invention in rats and/or dogs were evaluated herein, the animal information was listed in Table B.
(§2) The compound of the present invention was administered to the animal subjects in the form of 10% DMSO+10% Kolliphor HS15+78% Saline+2% (2% HCl) solution or 78% Saline+2% (2% HCl)+20% PEG400 solution. Before administration, the animals were fasted for 12 hours but water was freely allowed. In the IV group, the dose was 1 mg/kg (Rats) or 0.5 mg/kg (dogs), blood samples were taken from vein at the following time points after administration (blood volume was about 0.2 mL): 0.083, 0.25, 0.5, 1.0, 2.0, 4.0, 6.0, 8.0 and 24 h (dogs) or 0.083, 0.25, 0.5, 1.0, 2.0, 5.0, 7.0 and 24 h (Rats), EDTA-K2 was pre-added to the blood vessels as an anticoagulant. In the gavage group, the dose was 5 mg/kg (Rats) or 2.5 mg/kg (dogs), blood samples were taken from vein at the following time points after administration (blood volume was about 0.2 mL): 0.25, 0.5, 1.0, 2.0, 4.0, 6.0, 8.0 and 24 h (dogs) or 0.25, 0.5, 1.0, 2.0, 5.0, 7.0 and 24 h (Rats), EDTA-K2 was pre-added to the blood vessels as an anticoagulant. The blood samples were centrifuged at […] for 2 minutes. The plasma was collected and kept at −20° C. or −70° C.
(§3) The above collected plasma samples were processed (after thawing of frozen plasma at room temperature, the thawed plasma was vortexed for 15 s; 10-20 μL of plasma was taken and 120-150 μL of acetonitrile solution containing internal standard was added to the plasma; the mixture was vortexed for 5 min amd centrifuged for 5 min at 4,000 rpm; 100 μL of supernatant was taken and 120-150 μL of methanol/water (v/v=1/1) was added to the suspernatant, and mixing), and then LC/MS/MS was used to analyze the concentration of the compound in plasma, and […] was used to calculate the pharmacokinetic parameters.

[2] = Pharmacokinetic evaluation after intravenous or gavage administration to dogs; type: in vivo, Beagle dogs; conditions: 2.5 mg/kg; for AUC(0-inf) / AUC(0-t) / Cmax / MRT inf / Tmax / half-life: beagle, dog, plasma, intravenous, i.v group; for F: gavage group
Procedure: as §1
as §2, with “In the gavage group, the dose was 5 mg/kg (Rats) or 2.5 mg/kg (dogs), blood samples were taken from vein at the following time points after administration (blood volume was about 0.2 mL): 0.25, 0.5, 1.0, 2.0, 4.0, 6.0, 8.0 and 24 h (dogs) or 0.25, 0.5, 1.0, 2.0, 5.0, 7.0 and 24 h (Rats), EDTA-K2 was pre-added to the blood vessels as an anticoagulant.” left out
as §3

Row | SMILES | IC50 (humanized GnRH receptor) [nM] | AUC(0-inf) ([1]; iv, i.v group, 1 mg/kg) [ng·h/mL] | AUC(0-t) ([1]; iv, i.v group, 1 mg/kg) [ng·h/mL] | Cmax ([1]; iv, i.v group, 1 mg/kg) [ng/mL] | MRT inf ([1]; iv, i.v group, 1 mg/kg) [h] | Tmax ([1]; iv, i.v group, 1 mg/kg) [h] | clearance ([1]; iv, i.v group, 1 mg/kg) [mL/min/kg] | half-life ([1]; iv, i.v group, 1 mg/kg) [h] | AUC(0-inf) ([1]; po, i.g group, 5 mg/kg) [ng·h/mL] | AUC(0-t) ([1]; po, i.g group, 5 mg/kg) [ng·h/mL] | Cmax ([1]; po, i.g group, 5 mg/kg) [ng/mL] | MRT inf ([1]; po, i.g group, 5 mg/kg) [h] | Tmax ([1]; po, i.g group, 5 mg/kg) [h] | half-life ([1]; po, i.g group, 5 mg/kg) [h] | F ([1]; i.g group, 5 mg/kg) [%] | AUC(0-inf) [2] [ng·h/mL] | AUC(0-t) [2] [ng·h/mL] | Cmax [2] [ng/mL] | MRT inf [2] [h] | Tmax [2] [h] | other results
1 | CONC(=O)Nc1ccc(-c2sc3c(c2CN(C)C)c(=O)n(-c2ccc(-n4nccn4)nc2)c(=O)n3Cc2c(F)cccc2F)cc1 [Example 4, 1-(4-(3-(6-(2H-1,2,3-triazol-2-yl)pyrid-3-yl)-1-(2,6-difluorobenzyl)-5-((dimethylamino)methyl)-2,4-dioxo-1,2,3,4-tetrahydrothieno[2,3-d]pyrimidin-6-yl)phenyl)-3-methoxyurea] | 2.22 |  |  |  |  |  |  |  |  |  |  |  |  |  |  |  |  |  |  |  | 
2 | CONC(=O)Nc1ccc(-c2sc3c(c2CN(C)C)c(=O)n(-c2ccc(-n4cccn4)nc2)c(=O)n3Cc2c(F)cccc2F)cc1 [Example 3, 1-(4-(3-(6-(1H-pyrazol-1-yl)pyrid-3-yl)-1-(2,6-difluorobenzyl)-5-((dimethylamino)methyl)-2,4-dioxo-1,2,3,4-tetrahydrothieno[2,3-d]pyrimidin-6-yl)phenyl)-3-methoxyurea] | 1.82 | 184 | 179 | 151 | 4.58 | 0.083 | 90.7 | 2.13 | 1750 | 1710 | 164 | 6.4 | 2.33 | 4.43 | 190.6 | 11800 | 9490 | 671 | 13.2 | 1.67 | half-life [2]: 9.44 h; F [2]: 140.3%
3 | CONC(=O)Nc1ccc(-c2sc3c(c2CN(C)C)c(=O)n(-c2ccc(-n4nccn4)cn2)c(=O)n3Cc2c(F)cccc2F)cc1 [Example 2, 1-(4-(3-(5-(2H-1,2,3-triazol-2-yl)pyrid-2-yl)-1-(2,6-difluorobenzyl)-5-((dimethylamino)methyl)-2,4-dioxo-1,2,3,4-tetrahydrothieno[2,3-d]pyrimidin-6-yl)phenyl)-3-methoxyurea] | 3 | 266 | 261 | 352 | 1.22 | 0.083 | 62.7 | 1.33 | 529 | 519 | 177 | 2.48 | 0.667 | 1.91 | 39.8 | 4290 | 4130 | 720 | 5.59 | 1.33 | half-life [2]: 4.41 h; F [2]: 133%

Second part, led by results:

Row | IC50 (humanized GnRH receptor) [nM] | AUC(0-inf) ([1]; iv, i.v group, 1 mg/kg) [ng·h/mL] | AUC(0-t) ([1]; iv, i.v group, 1 mg/kg) [ng·h/mL] | Cmax ([1]; iv, i.v group, 1 mg/kg) [ng/mL] | MRT inf ([1]; iv, i.v group, 1 mg/kg) [h] | Tmax ([1]; iv, i.v group, 1 mg/kg) [h] | clearance ([1]; iv, i.v group, 1 mg/kg) [mL/min/kg] | half-life ([1]; iv, i.v group, 1 mg/kg) [h] | AUC(0-inf) ([1]; po, i.g group, 5 mg/kg) [ng·h/mL] | AUC(0-t) ([1]; po, i.g group, 5 mg/kg) [ng·h/mL] | Cmax ([1]; po, i.g group, 5 mg/kg) [ng/mL] | MRT inf ([1]; po, i.g group, 5 mg/kg) [h] | Tmax ([1]; po, i.g group, 5 mg/kg) [h] | half-life ([1]; po, i.g group, 5 mg/kg) [h] | F ([1]; i.g group, 5 mg/kg) [%] | AUC(0-inf) [2] [ng·h/mL] | AUC(0-t) [2] [ng·h/mL] | Cmax [2] [ng/mL] | MRT inf [2] [h] | Tmax [2] [h] | SMILES | other results
4 | 4.1 |  |  |  |  |  |  |  |  |  |  |  |  |  |  |  |  |  |  |  | CONC(=O)Nc1ccc(-c2sc3c(c2CN(C)C)c(=O)n(-c2cccc(-n4cccn4)n2)c(=O)n3Cc2c(F)cccc2F)cc1 [Example 5, 1-(4-(3-(6-(1H-pyrazol-1-yl)pyrid-2-yl)-1-(2,6-difluorobenzyl)-5-((dimethylamino)methyl)-2,4-dioxo-1,2,3,4-tetrahydrothieno[2,3-d]pyrimidin-6-yl)phenyl)-3-methoxyurea] | 
5 | 3.13 |  |  |  |  |  |  |  |  |  |  |  |  |  |  |  |  |  |  |  | CONC(=O)Nc1ccc(-c2sc3c(c2CN(C)C)c(=O)n(-c2ccc(-n4cccn4)nn2)c(=O)n3Cc2c(F)cccc2F)cc1 [Example 12, 1-(4-(3-(6-(1H-pyrazol-1-yl)pyridazin-3-yl)-1-(2,6-difluorobenzyl)-5-((dimethylamino)methyl)-2,4-dioxo-1,2,3,4-tetrahydrothieno[2,3-d]pyrimidin-6-yl)phenyl)-3-methoxyurea] | 
